Where “and” joins values, the source holds several entries; their conditions need not be identical. Equal entries are not always repeated.
Columns and labels:
[1] = test system: patients with MDD; assay: MADRS response, remission and symptom improvement (CAN-BIND-1 trial); format: in vivo, human; design: key to Estimate for Week, percentage symptom improvement (MADRS), mixed effects model / Estimate for CYP2C19 IM+PM, percentage symptom improvement (MADRS), mixed effects model / Estimate for CYP2C19 RM+UM, percentage symptom improvement (MADRS), mixed effects model / Estimate for CYP2D6 IM+PM, percentage symptom improvement (MADRS), mixed effects model: % points of improvement = (baseline MADRS − MADRS)/baseline; conditions: for share of the effect of CYP2C19 IM+PM phenotype on symptom improvement mediated by ESCadj serum concentrations: ESC-Only, bootstrap mediation analysis; for cumulative difference in symptom improvement from baseline between CYP2C19 NMs and IMs: at trial end (Week 16)
Method: (§1) The 16-week study protocol consisted of two phases following screening and baseline visits. […] Blood samples were collected on Weeks 2, 10, and 16 to measure medication levels and on Week 4 for pharmacogenetic analyses. The methods used for the quantification of serum levels of drug and metabolite concentrations is described in the Supplementary Methods.
Depressive symptoms were assessed using MADRS every 2 weeks from Week 0 to 16. The primary outcomes for response were: (1) response status (responder versus non-responder) on the last visit of Phases I and II (i.e., Week 8 and 16), and (2) the percentage of symptom improvement across visits during Phases I and II. Remission status (remitter versus non-remitter) at the end of Phases I and II was a secondary outcome for a response. These response outcomes are described in the Supplementary Methods.
(§2) We assessed the dichotomous measures of response (responder vs. non-responder and remitter vs. non-remitter) and side effects (present vs. absent) for the last timepoint in Phases I and II using logistic regression models with total MADRS score at baseline included as a covariate. Given the availability of biweekly MADRS scores and multiple time points for TSES, continuous measures of response (percentage of symptom improvement) and side effects (intensity of each category of side effects) were assessed using linear mixed-effects models that included interactions of CYP2C19 and CYP2D6 metabolizer groups with timepoint, and recruitment site and individual as random effects variables.
(§3) Using Spearman’s rank correlation, we explored whether measures of unadjusted serum concentrations were associated with symptom improvement and the intensity of side effects during Phase I and II.
Description of measures of response outcome
Response status signifies the classification of patients as “responder” or “non-responder” if MADRS reduction of ≥50% or <50% from baseline was reached, respectively. For remission status, patients are classified as “remitter” if they achieved a MADRS total score of 10 or less; otherwise, they are classified as “non-remitter”. The percentage of symptom improvement was calculated by subtracting the total MADRS score from the baseline MADRS score and then dividing by the baseline MADRS score for each of the eight time points. These measures of response were selected, since continuous measures, such as percentage symptom improvement, capture more information and have higher power, whereas dichotomous measures, such as response status, has a particular clinical relevance since it is associated with MDD prognosis.
Post-hoc mediation analyses […]
strength of the association between the CYP2C19 or CYP2D6 metabolizer groups (predictor variable) and measures of treatment response or side effect (outcome variable) must be attenuated or rendered non- […]
mediation, respectively.1,2 R package “Mediation”3 and “lavaan”4 was used for continuous and binary variables, respectively, to perform nonparametric bootstrap analyses with 5000 iterations to calculate the estimate of the […]
1Baron RM, Kenny DA. The moderator–mediator variable distinction in social psychological research: Conceptual, strategic, and statistical considerations.
2MacKinnon DP, Lockwood CM, Hoffman JM, West SG, Sheets V. A Comparison of Methods to Test Mediation and Other Intervening Variable Effects.
3Tingley D, Yamamoto T, Hirose K, Keele L, Imai K, Trinh M et al. mediation: Causal Mediation Analysis. […]
project.org/package=mediation (accessed 7 Apr2021).
4Savalei V, Rosseel Y. Computational Options for Standard Errors and Test Statistics with Incomplete Normal and Nonnormal

[2] = test system: patients with MDD; assay: Toronto side effects scale (TSES), treatment-related side effects; format: in vivo, human; conditions: Week 16
Source text: The Toronto side effects scale (TSES), administered on Weeks 2, 4, 10, 12, and 16, is a clinical instrument designed to assess the frequency and severity of treatment-related side effects on 5-point Likert scales. The “intensity” score is derived by multiplying the frequency and severity of each side effect. The items assessed can be broadly categorized into the central nervous system (CNS), gastrointestinal (GI), and sexual side effects, as well as weight gain (Table S1)[28]. The primary outcomes for side effects were both dichotomous and continuous: (1) absence or presence of side effects within the four categories on the last visit of Phases I and II and (2) the intensity of each category of side effect across visits during each Phase.
as §2, §3

[3] = Dose-adjusted serum concentrations of drug and metabolite (LC-MS/MS) by CYP2C19 and CYP2D6 metabolizer group; format: in vivo, human; conditions: for B, ESCadj concentrations in serum, CYP2C19 RM+UM / B, ESCadj concentrations in serum, CYP2D6 IM+PM / B, ESCadj concentrations in serum, CYP2C19 IM+PM / B, S-DCTadj concentrations in serum, CYP2C19 IM+PM / B, S-DCTadj concentrations in serum, CYP2C19 RM+UM / B, S-DCTadj concentrations in serum, CYP2D6 IM+PM: vs NM
Source text: as §1
Serum concentrations were adjusted for dosage (i.e., ng/mL/mg). Sampling time (i.e., hours since the last dose) was entered as a covariate in the regression models to account for when the medication was taken.
The CYP2C19 metabolizer group was not included as a fixed effect covariate, as CYP2C19 is not known to be involved in the metabolism of ARI. […]
Collection of blood samples and quantification of serum drug and metabolite concentrations Participants self-reported the time at which the last dosage of the study medication was taken during the collection of the blood samples. […]
major metabolites, (S-DCT) and (DHA), were performed at the CAMH Clinical Laboratory using LC-MS/MS technology. Briefly, a mix of deuterated internal standards (Cerilliant) was added to 100 µL of each serum specimen, calibrator (Cerilliant) and quality control (MassCheck Antidepressants/Neuroleptics, Level 1 and Level 2). Proteins were precipitated with 300 µL of 9:1 Acetonitrile:Methanol (Sigma-Aldrich) followed by 5 min centrifugation at 9000 rpm. 25 µL of each supernatant was diluted with 200 µL of 0.1% Formic acid (Sigma-Aldrich) and then analyzed on the LC-MS/MS platform consisting of ThermoFisher TSQ Quantum Ultra mass spectrometer coupled with ThermoFisher Surveyor LC pump and HTC PAL autosampler fitted with a Kinetex F5 2.6 µm, 100 x 2.1 mm column (Phenomenex). Six minute gradient elution with 0.1% Formic Acid (mobile phase A) and Acetonitrile (mobile phase B) was applied. Collision energies ranged from 14 to […]
calibration curve ranging from 10 to 1000 ng/mL for each analyte.
Vendor nominal means for quality controls were used to assess the assay accuracy for each of the four analytes […]
precision was considered acceptable assay performance.
Data was analyzed with ThemoFisher XCalibur software.

[4] = test system: CYP2D6; conditions: cited from earlier work
[5] = vs NM, Phase II, by treatment arm

CN(C)CCC[C@@]1(c2ccc(F)cc2)OCc2cc(C#N)ccc21 [ESC, Escitalopram]
Estimate for Week, percentage symptom improvement (MADRS), mixed effects model ([1]; Phase I (Weeks 0–8)): 4.14
Estimate for Week, percentage symptom improvement (MADRS), mixed effects model ([1]; Phase II (Weeks 8–16), by treatment arm): 1.47
share of the effect of CYP2C19 IM+PM phenotype on symptom improvement mediated by ESCadj serum concentrations ([1]; Phase II): 45%
share of the effect of CYP2C19 IM+PM phenotype on symptom improvement mediated by ESCadj serum concentrations ([1]; Phase II, listed as ESC-Only): about 45%
cumulative difference in symptom improvement from baseline between CYP2C19 NMs and IMs [1]: 11.5%
cumulative difference in symptom improvement from baseline between CYP2C19 NMs and IMs ([1]; listed as ESC-Only): 11.52%
overall response rate ([1]; end of Phase I (Week 8), MADRS reduction ≥50% from baseline, 83/178): 46.62%
overall response rate ([1]; end of Phase II (Week 16), responders continued ESC, non-responders augmented with ARI, 122/178): 68.54%
Estimate for CYP2C19 IM+PM*Week, percentage symptom improvement (MADRS), mixed effects model ([1]; vs NM, Phase I): -1.48
Estimate for CYP2C19 IM+PM, percentage symptom improvement (MADRS), mixed effects model ([1]; vs NM, Phase I): 3.27
Estimate for CYP2C19 RM+UM*Week, percentage symptom improvement (MADRS), mixed effects model ([1]; vs NM, Phase I): -0.73
Estimate for CYP2C19 RM+UM, percentage symptom improvement (MADRS), mixed effects model ([1]; vs NM, Phase I): 3.74
Estimate for CYP2D6 IM+PM*Week, percentage symptom improvement (MADRS), mixed effects model ([1]; vs NM, Phase I): 0.31
Estimate for CYP2D6 IM+PM, percentage symptom improvement (MADRS), mixed effects model ([1]; vs NM, Phase I): 3.13
Estimate for CYP2C19 IM+PM, percentage symptom improvement (MADRS), mixed effects model [1, 5]: 26.15
Estimate for CYP2C19 RM+UM*Week, percentage symptom improvement (MADRS), mixed effects model [1, 5]: -1.04
Estimate for CYP2C19 RM+UM, percentage symptom improvement (MADRS), mixed effects model [1, 5]: 14.10
Estimate for CYP2D6 IM+PM*Week, percentage symptom improvement (MADRS), mixed effects model [1, 5]: -0.41
Estimate for CYP2D6 IM+PM, percentage symptom improvement (MADRS), mixed effects model [1, 5]: 1.19
Estimate (B) for CYP2C19 IM+PM*Week, average percentage change in MADRS from baseline, mixed effects model ([1]; vs NM, Phase II, by treatment arm, listed as ESC-Only): -2.34
average percentage change in MADRS from baseline lower in CYP2C19 IMs than in NMs ([1]; with every two-week assessment, Phase II, simple effects analysis): 2.54%
odds of reporting a CNS side effect, CYP2D6 NMs compared to IM + PMs (factor) [2]: 7.69
odds of reporting decreased sleepiness, CYP2D6 NMs compared to IM + PMs [2]: 25.53
odds of reporting sweating, CYP2D6 NMs compared to IM + PMs ([2]; listed as ESC-Only): 29.21
higher mean ESCadj concentrations, CYP2C19 IM + PMs compared to NMs ([3]; Week 2 (Phase I)): 42.9%
difference in ESCadj concentrations between CYP2C19 NMs and IM + PMs ([3]; Week 10, ESC + ARI): 39.6%
higher levels of ESCadj in serum, CYP2D6 IM + PMs compared to NMs ([3]; Week 10, ESC-Only): 58.9%
difference in ESCadj concentrations between CYP2C19 NMs and IM + PMs ([3]; Week 16, ESC + ARI): 58.2%
higher levels of ESCadj in serum, CYP2D6 IM + PMs compared to NMs ([3]; Week 16, ESC-Only): 59.2%
ESC levels in CYP2D6 IM+PMs, ESC+ARI compared to ESC-Only ([3]; Week 16, ARI coadministration): lower
ESCadj serum levels in CYP2D6 NMs, ESC + ARI compared to ESC-Only ([3]; Weeks 10 and 16, ARI coadministration): significantly higher
B, ESCadj concentrations in serum, CYP2C19 RM+UM ([3]; Week 2 (Phase I)): -0.05
B, ESCadj concentrations in serum, CYP2D6 IM+PM ([3]; Week 2 (Phase I)): 0.31
B, ESCadj concentrations in serum, CYP2C19 IM+PM ([3]; Week 2 (Phase I), linear regression, dose-adjusted): 0.59
B, ESCadj concentrations in serum, CYP2C19 IM+PM ([3]; Week 10, ESC+ARI arm): 0.69
B, ESCadj concentrations in serum, CYP2C19 RM+UM ([3]; Week 10, ESC+ARI arm): 0.01
B, ESCadj concentrations in serum, CYP2D6 IM+PM ([3]; Week 10, ESC+ARI arm): -0.37
B, ESCadj concentrations in serum, CYP2C19 IM+PM ([3]; Week 10, ESC-Only arm): 0.65
B, ESCadj concentrations in serum, CYP2C19 RM+UM ([3]; Week 10, ESC-Only arm): 0.14
B, ESCadj concentrations in serum, CYP2D6 IM+PM ([3]; Week 10, ESC-Only arm): 0.71 and 0.65
B, ESCadj concentrations in serum, CYP2C19 IM+PM ([3]; Week 16, ESC+ARI arm): 0.77
B, ESCadj concentrations in serum, CYP2C19 RM+UM ([3]; Week 16, ESC+ARI arm): 0.17
B, ESCadj concentrations in serum, CYP2D6 IM+PM ([3]; Week 16, ESC+ARI arm): -0.32
B, ESCadj concentrations in serum, CYP2C19 IM+PM ([3]; Week 16, ESC-Only arm): 0.66
B, ESCadj concentrations in serum, CYP2C19 RM+UM ([3]; Week 16, ESC-Only arm): -0.10
inhibition of CYP2D6 in vitro [4]: weak inhibitors

CNCCC[C@@]1(c2ccc(F)cc2)OCc2cc(C#N)ccc21 [S-DCT, S-desmethylcitalopram]
B, S-DCTadj concentrations in serum, CYP2C19 IM+PM ([3]; Week 2 (Phase I)): -0.04
B, S-DCTadj concentrations in serum, CYP2C19 RM+UM ([3]; Week 2 (Phase I)): 0.04
B, S-DCTadj concentrations in serum, CYP2D6 IM+PM ([3]; Week 2 (Phase I)): -0.08
B, S-DCTadj concentrations in serum, CYP2C19 IM+PM ([3]; Week 10, ESC+ARI arm): -0.02
B, S-DCTadj concentrations in serum, CYP2C19 RM+UM ([3]; Week 10, ESC+ARI arm): 0.14
B, S-DCTadj concentrations in serum, CYP2D6 IM+PM ([3]; Week 10, ESC+ARI arm): -0.11
B, S-DCTadj concentrations in serum, CYP2C19 IM+PM ([3]; Week 10, ESC-Only arm): -0.12
B, S-DCTadj concentrations in serum, CYP2C19 RM+UM ([3]; Week 10, ESC-Only arm): 0.02
B, S-DCTadj concentrations in serum, CYP2D6 IM+PM ([3]; Week 10, ESC-Only arm): -0.11
B, S-DCTadj concentrations in serum, CYP2C19 IM+PM ([3]; Week 16, ESC+ARI arm): -0.12
B, S-DCTadj concentrations in serum, CYP2C19 RM+UM ([3]; Week 16, ESC+ARI arm): 0.08
B, S-DCTadj concentrations in serum, CYP2D6 IM+PM ([3]; Week 16, ESC+ARI arm): -0.12
B, S-DCTadj concentrations in serum, CYP2C19 IM+PM ([3]; Week 16, ESC-Only arm): -0.09
B, S-DCTadj concentrations in serum, CYP2C19 RM+UM ([3]; Week 16, ESC-Only arm): 0.07
B, S-DCTadj concentrations in serum, CYP2D6 IM+PM ([3]; Week 16, ESC-Only arm): -0.12
inhibition of CYP2D6 in vitro [4]: weak inhibitors

— publication PMC9448818 (Translational Psychiatry, 2022)
